{
  "source": "patent US20250190808A1",
  "about": "“DEVICE AND METHOD FOR IM[…] TR[…] NETWORK FOR T[…] SEQUENCE, AND TRAINING DEVICE AND METHOD USING SAME” (LG MANAGEMENT DEVELOPMENT INSTITUTE CO., LTD., priority 2022, published 2025)",
  "origin": "cited, not measured here",
  "key": {"MHC TYPE B*0101": {"tested_on": "MHC TYPE B*0101", "settings": "read-out: MHC BINDING (IC50)"}, "MHC TYPE A*0201": {"target": "MHC TYPE A*0201 (Homo sapiens, UniProt P04439, D140Y/D185E/D98H/E176V/E277Q/G131W/G231S/I119V/I121R/I166T/I218V/L300P/L318F/N151K/N90K/P208A/P217A/Q86G/Q94H/R138H/R169H/T345S)", "settings": "read-out: MHC BINDING (IC50)"}, "MHC TYPE A*0204": {"tested_on": "MHC TYPE A*0204", "settings": "read-out: MHC BINDING (IC50)"}, "MHC TYPE A*0101": {"tested_on": "MHC TYPE A*0101", "settings": "read-out: MHC BINDING (IC50)"}},
  "note": "Where two headings read alike, the source gives them in different places.",
  "data": [
    {"sequence": "MGQIVTMFE", "values": [
      {"measurement": "IC50", "setting": "MHC TYPE B*0101", "value": "> 20", "unit": "µM"},
      {"measurement": "IC50", "setting": "MHC TYPE A*0201", "value": 21, "unit": "nM"},
      {"measurement": "ACTIVATION OF T-CELL", "setting": "T-cell; MHC type A*0201", "value": "Positive"}
    ]},
    {"sequence": "MFEALPHII", "values": [
      {"measurement": "IC50", "setting": "MHC TYPE A*0204", "value": 12, "unit": "µM"}
    ]},
    {"sequence": "GQIVTMFEA", "values": [
      {"measurement": "ACTIVATION OF T-CELL", "setting": "T-cell; MHC type A*0101", "value": "Negative"},
      {"measurement": "IC50", "setting": "MHC TYPE A*0101", "value": "< 100", "unit": "nM"}
    ]}
  ]
}
